# Assays:
# [1] = molecular target: T1, Alpha-2C adrenergic receptor (Homo sapiens, UniProt P18825); test: Inhibition of alpha2c adrenergic receptor (unknown origin)
# T1 sequence (P18825 whole entry): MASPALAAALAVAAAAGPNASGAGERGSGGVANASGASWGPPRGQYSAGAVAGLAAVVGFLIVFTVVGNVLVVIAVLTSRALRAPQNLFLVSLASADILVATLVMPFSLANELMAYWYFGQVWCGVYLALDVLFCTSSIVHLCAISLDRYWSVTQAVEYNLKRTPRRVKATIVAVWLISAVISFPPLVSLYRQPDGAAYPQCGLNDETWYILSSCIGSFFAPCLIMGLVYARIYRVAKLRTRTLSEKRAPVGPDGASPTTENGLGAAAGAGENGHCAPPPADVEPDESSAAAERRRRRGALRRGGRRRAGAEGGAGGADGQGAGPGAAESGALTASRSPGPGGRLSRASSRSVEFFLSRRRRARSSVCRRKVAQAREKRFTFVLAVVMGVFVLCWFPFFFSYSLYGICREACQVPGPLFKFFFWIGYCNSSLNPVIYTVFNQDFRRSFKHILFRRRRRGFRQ
# [2] = Free plasma concentration in Athymic BALB/c nude mouse xenografted with human Karpas-422 cells at 20 mg/kg, po after 12 hrs by HPLC-MS/MS analysis; type: ADME, organism-based; settings: in vivo
# [3] = Intrinsic clearance in human hepatocytes measured per 10^6 cells; type: ADME, cell-based, Hepatocyte; settings: read-out: CLH
# [4] = tested on: KARPAS-422; test: Antiproliferative activity against human KARPAS-422 cells expressing EZH2 mutant assessed as inhibition of cell growth after 14 days by beckman coulter counting method; type: functional; settings: time 14 day
# [5] = Lipophilicity, logD of the compound at pH 7.4 by LC with tandem MS analysis; type: physicochemical; settings: buffer, read-out: logD
# [6] = Dissociation constant, pKa of compound; type: physicochemical
# [7] = Permeability across apical to basolateral side in human Caco-2 cells at 10 uM incubated for 2 hrs by LC/MS/MS analysis; type: ADME, cell-based; settings: Caco-2, read-out: permeability
# [8] = Oral bioavailability in Sprague-Dawley rat at 2 mg/kg; type: ADME, organism-based; settings: in vivo
# [9] = molecular target: Cytochrome P450 3A4 (Homo sapiens, UniProt P08684); test: Inhibition of CYP3A4 in human liver microsomes using midazolam as substrate incubated for 10 mins in presence of NADPH by LC-MS/MS analysis; type: ADME, Microsome
# Sequence of Cytochrome P450 3A4 (P08684 whole entry): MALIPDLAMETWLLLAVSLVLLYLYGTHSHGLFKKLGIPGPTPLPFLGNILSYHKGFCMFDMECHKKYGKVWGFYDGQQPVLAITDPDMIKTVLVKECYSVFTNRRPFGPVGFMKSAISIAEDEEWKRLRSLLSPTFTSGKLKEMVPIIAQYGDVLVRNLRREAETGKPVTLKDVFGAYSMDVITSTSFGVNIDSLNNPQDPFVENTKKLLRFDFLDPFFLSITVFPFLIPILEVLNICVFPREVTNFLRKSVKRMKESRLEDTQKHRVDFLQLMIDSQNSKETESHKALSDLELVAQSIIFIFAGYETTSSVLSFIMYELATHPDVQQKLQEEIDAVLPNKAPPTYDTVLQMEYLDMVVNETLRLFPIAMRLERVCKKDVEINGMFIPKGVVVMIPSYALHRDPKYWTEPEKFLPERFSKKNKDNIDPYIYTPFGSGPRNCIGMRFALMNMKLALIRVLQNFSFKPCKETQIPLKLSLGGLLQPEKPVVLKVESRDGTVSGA
# [10] = molecular target: Cytochrome P450 2C9 (Homo sapiens, UniProt P11712); test: Inhibition of CYP2C9 in human liver microsomes using diclofenac as substrate incubated for 10 mins in presence of NADPH by LC-MS/MS analysis; type: ADME, Microsome
# Sequence of Cytochrome P450 2C9 (P11712 whole entry): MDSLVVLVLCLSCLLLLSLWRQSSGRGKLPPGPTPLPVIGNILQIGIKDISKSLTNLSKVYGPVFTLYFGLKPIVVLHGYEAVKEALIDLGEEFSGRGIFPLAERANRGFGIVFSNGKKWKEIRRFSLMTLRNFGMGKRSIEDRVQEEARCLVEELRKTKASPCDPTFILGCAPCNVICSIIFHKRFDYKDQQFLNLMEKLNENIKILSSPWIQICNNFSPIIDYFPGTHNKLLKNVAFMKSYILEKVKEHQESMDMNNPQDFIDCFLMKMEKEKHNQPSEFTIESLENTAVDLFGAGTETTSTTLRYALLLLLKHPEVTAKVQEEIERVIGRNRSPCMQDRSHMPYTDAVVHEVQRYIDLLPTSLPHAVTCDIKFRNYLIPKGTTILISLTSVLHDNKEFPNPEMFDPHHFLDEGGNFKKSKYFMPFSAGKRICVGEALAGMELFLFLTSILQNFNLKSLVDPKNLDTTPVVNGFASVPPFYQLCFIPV
# [11] = molecular target: Cytochrome P450 2D6 (Homo sapiens, UniProt P10635); test: Inhibition of CYP2D6 in human liver microsomes using bufuralol as substrate incubated for 10 mins in presence of NADPH by LC-MS/MS analysis; type: ADME, Microsome
# Sequence of Cytochrome P450 2D6 (P10635 whole entry): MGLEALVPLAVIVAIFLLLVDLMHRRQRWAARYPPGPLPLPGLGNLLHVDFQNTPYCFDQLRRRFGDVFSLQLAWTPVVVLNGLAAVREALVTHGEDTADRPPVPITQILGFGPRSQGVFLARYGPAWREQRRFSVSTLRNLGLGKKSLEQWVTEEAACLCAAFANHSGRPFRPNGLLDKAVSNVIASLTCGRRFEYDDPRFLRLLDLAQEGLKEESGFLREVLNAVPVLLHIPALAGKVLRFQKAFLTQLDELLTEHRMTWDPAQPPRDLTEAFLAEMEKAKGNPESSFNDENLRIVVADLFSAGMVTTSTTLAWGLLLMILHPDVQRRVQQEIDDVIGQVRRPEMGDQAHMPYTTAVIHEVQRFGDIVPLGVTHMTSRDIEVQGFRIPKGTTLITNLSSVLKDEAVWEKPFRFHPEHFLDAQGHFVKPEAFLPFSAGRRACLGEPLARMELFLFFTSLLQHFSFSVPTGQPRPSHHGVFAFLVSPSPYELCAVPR
# [12] = High throughput solubility of the compound at pH 1 after 16 to 24 hrs by MS/MS analysis; type: physicochemical; settings: buffer, time 16-24 hrs
# [13] = High throughput solubility of the compound at pH 7 after 16 to 24 hrs by MS/MS analysis; type: physicochemical; settings: buffer, time 16-24 hrs, read-out: solubility
# [14] = High throughput solubility of the compound in SGF after 16 to 24 hrs by MS/MS analysis; type: physicochemical; settings: time 16-24 hrs
# [15] = High throughput solubility of the compound in FaSSIF after 16 to 24 hrs by MS/MS analysis; type: physicochemical; settings: time 16-24 hrs
# [16] = High throughput solubility of the compound in FeSSIF after 16 to 24 hrs by MS/MS analysis; type: physicochemical; settings: time 16-24 hrs
# [17] = Permeability across basolateral to apical side in human Caco-2 cells incubated for 2 hrs by LC/MS/MS analysis; type: ADME, cell-based; settings: read-out: permeability
# [18] = Antitumor activity against human Karpas-422 cells xenografted Athymic BALB/c nude mouse assessed as minimum effective dose administered twice a day for 30 days; type: functional; settings: KARPAS-422, 720 h, time 30 day, read-out: MED
# [19] = Oral biovailability in ICR (CD-1) mouse at 2 mg/kg, po; type: ADME, organism-based; settings: in vivo
# [20] = Oral biovailability in Beagle dog at 2 mg/kg, po; type: ADME, organism-based, Canis lupus familiaris; settings: in vivo
# [21] = Volume of distribution at steady state ICR (CD-1) mouse at 2 mg/kg, po or 1 mg/kg, iv after 1 week by LC-MS/MS analysis; type: ADME, organism-based; settings: in vivo, 168 h, time 1 weeks
# [22] = Volume of distribution at steady state in Sprague-Dawley rat at 2 mg/kg, po or 1 mg/kg, iv after 1 week by LC-MS/MS analysis; type: ADME, organism-based; settings: in vivo, 168 h, time 1 weeks
# [23] = Volume of distribution at steady state in wild type Beagle dog at 2 mg/kg, po or 1 mg/kg, iv after 1 week by LC-MS/MS analysis; type: ADME, organism-based, Canis lupus familiaris; settings: in vivo, 168 h, time 1 weeks
# [24] = Terminal half life in ICR (CD-1) mouse at 2 mg/kg, po or 1 mg/kg, iv after 1 week by LC-MS/MS analysis; type: ADME, organism-based; settings: in vivo, time 1 weeks, read-out: beta t1/2 (converted)
# [25] = Terminal half life in Sprague-Dawley rat at 2 mg/kg, po or 1 mg/kg, iv after 1 week by LC-MS/MS analysis; type: ADME, organism-based; settings: in vivo, time 1 weeks, read-out: beta t1/2 (converted)
# [26] = Terminal half life in wild type Beagle dog at 2 mg/kg, po or 1 mg/kg, iv after 1 week by LC-MS/MS analysis; type: ADME, organism-based, Canis lupus familiaris; settings: in vivo, time 1 weeks, read-out: beta t1/2 (converted)
# [27] = Dose normalized AUC in ICR (CD-1) mouse at 2 mg/kg, po or 1 mg/kg, iv after 1 week by LC-MS/MS analysis; type: ADME, organism-based; settings: in vivo, 168 h, time 1 weeks
# [28] = Dose normalized AUC in Sprague-Dawley rat at 2 mg/kg, po or 1 mg/kg, iv after 1 week by LC-MS/MS analysis; type: ADME, organism-based; settings: in vivo, 168 h, time 1 weeks
# [29] = Dose normalized AUC in wild type Beagle dog at 2 mg/kg, po or 1 mg/kg, iv after 1 week by LC-MS/MS analysis; type: ADME, organism-based, Canis lupus familiaris; settings: in vivo, 168 h, time 1 weeks
# [30] = Dose normalized Cmax in ICR (CD-1) mouse at 2 mg/kg, po or 1 mg/kg, iv after 1 week by LC-MS/MS analysis; type: ADME, organism-based; settings: in vivo, 168 h, time 1 weeks
# [31] = Dose normalized Cmax in Sprague-Dawley rat at 2 mg/kg, po or 1 mg/kg, iv after 1 week by LC-MS/MS analysis; type: ADME, organism-based; settings: in vivo, 168 h, time 1 weeks
# [32] = Dose normalized Cmax in wild type Beagle dog at 2 mg/kg, po or 1 mg/kg, iv after 1 week by LC-MS/MS analysis; type: ADME, organism-based, Canis lupus familiaris; settings: in vivo, 168 h, time 1 weeks
# [33] = Metabolic stability in mouse microsomes assessed as intrinsic clearance; type: ADME, Microsome; settings: read-out: CLH
# [34] = Metabolic stability in rat microsomes assessed as intrinsic clearance; type: ADME, Microsome; settings: read-out: CLH
# [35] = Metabolic stability in dog microsomes assessed as intrinsic clearance; type: ADME, Canis lupus familiaris, Microsome; settings: read-out: CLH
# [36] = Metabolic stability in human microsomes assessed as intrinsic clearance; type: ADME, Microsome; settings: read-out: CLH
# [37] = Intrinsic clearance in mouse hepatocytes measured per 10^6 cells; type: ADME, cell-based, Hepatocyte; settings: read-out: CLH
# [38] = Intrinsic clearance in rat hepatocytes measured per 10^6 cells; type: ADME, cell-based, Hepatocyte; settings: read-out: CLH
# [39] = Intrinsic clearance in dog hepatocytes measured per 10^6 cells; type: ADME, cell-based, Canis lupus familiaris, Hepatocyte; settings: read-out: CLH
# [40] = Plasma clearance in rat; type: ADME, cell-free
# [41] = Plasma clearance in dog; type: ADME, cell-free, Canis lupus familiaris
# [42] = Plasma protein binding in mouse at 1 uM measured after 6 hrs LC-MS/MS analysis; type: ADME, cell-free; settings: read-out: PPB (converted)
# [43] = Plasma protein binding in rat at 1 uM measured after 6 hrs LC-MS/MS analysis; type: ADME, cell-free; settings: read-out: PPB (converted)
# [44] = Plasma protein binding in dog at 1 uM measured after 6 hrs LC-MS/MS analysis; type: ADME, cell-free, Canis lupus familiaris; settings: read-out: PPB (converted)
# [45] = Plasma protein binding in human at 1 uM measured after 6 hrs LC-MS/MS analysis; type: ADME, cell-free; settings: read-out: PPB (converted)
# [46] = Plasma protein binding in human assessed as unbound fraction at 1 uM measured after 6 hrs LC-MS/MS analysis; type: ADME, cell-free
compound,measurement,setting,value
COc1cccc(F)c1CNc1ccc(-c2cnc(C)nc2C)c2nncn12,IC50,[1],8.7 µM
same,Cp(f),[2],0.032 µM
same,hepatocyte CLint,[3],< 2.3 µL/min/1e6 cells
same,GI50,"[4]; Homo sapiens, KARPAS-422, 336 h",6.7 µM
same,GI90,[4],32 µM
same,logD,[5],3.8
same,pKa,[6],3.3
same,"Papp A→B at 2 h, 10 µM",[7],72 nm/s
same,bioavailability,[8],109%
same,IC50,[9],> 20 µM
same,IC50,[10],> 20 µM
same,IC50,[11],> 20 µM
same,solubility,[12],> 13000 µM
same,solubility,[13],2.6 µM
same,solubility,[14],173 µM
same,solubility,[15],34 µM
same,solubility,[16],86 µM
same,Papp B→A at 2 h,[17],420 nm/s
same,minimal effective dose,[18],7 mg/kg
same,bioavailability,[19],132%
same,bioavailability,[20],68%
same,Vdss,[21],7.5 L/kg
same,Vdss,[22],2.4 L/kg
same,Vdss,[23],2.1 L/kg
same,half-life,[24],2.2 h
same,half-life,[25],1.1 h
same,half-life,[26],2 h
same,AUC/dose,[27],1032 nM·h
same,AUC/dose,[28],2127 nM·h
same,AUC/dose,[29],2392 nM·h
same,Cmax/dose,[30],0.288 µM
same,Cmax/dose,[31],0.387 µM
same,Cmax/dose,[32],0.59 µM
same,microsomal CLint,[33],21 µL/min/mg
same,microsomal CLint,[34],11 µL/min/mg
same,microsomal CLint,[35],10 µL/min/mg
same,microsomal CLint,[36],9 µL/min/mg
same,hepatocyte CLint,[37],3.6 µL/min/1e6 cells
same,hepatocyte CLint,[38],3.2 µL/min/1e6 cells
same,hepatocyte CLint,[39],< 2.3 µL/min/1e6 cells
same,clearance,[40],1.32 L/h/kg
same,clearance,[41],0.78 L/h/kg
same,"fraction unbound at 6 h, 1 µM",[42],0.12
same,"fraction unbound at 6 h, 1 µM",[43],0.1
same,"fraction unbound at 6 h, 1 µM",[44],0.15
same,"fraction unbound at 6 h, 1 µM",[45],0.13
same,"fraction unbound at 6 h, 1 µM",[46],0.13

# Source: ChEMBL document CHEMBL5154826, “Discovery of the Clinical Candidate MAK683: An EED-Directed, Allosteric, and Selective PRC2 Inhibitor for the Treatment of Advanced Malignancies” (J Med Chem, 2022)
